Measurements published in US8461329B2, “Isoquinoline derivative” (Taisho Pharmaceutical Co., Ltd., priority 2008, dated 2013).
Where two headings read alike, the source gives them in different places.

Tests used:
[1] = molecular target: T1, CRTH2 (KB8 cells) (Homo sapiens, UniProt Q9Y5Y4); test: CRTH2 antagonist test (PGD2-induced intracellular calcium ion concentration increase in KB8 cells); assay type: cell-based
T1 construct: host or cells: KB8 cells (human CRTH2 expression cell)
T1 sequence (Q9Y5Y4 1-395): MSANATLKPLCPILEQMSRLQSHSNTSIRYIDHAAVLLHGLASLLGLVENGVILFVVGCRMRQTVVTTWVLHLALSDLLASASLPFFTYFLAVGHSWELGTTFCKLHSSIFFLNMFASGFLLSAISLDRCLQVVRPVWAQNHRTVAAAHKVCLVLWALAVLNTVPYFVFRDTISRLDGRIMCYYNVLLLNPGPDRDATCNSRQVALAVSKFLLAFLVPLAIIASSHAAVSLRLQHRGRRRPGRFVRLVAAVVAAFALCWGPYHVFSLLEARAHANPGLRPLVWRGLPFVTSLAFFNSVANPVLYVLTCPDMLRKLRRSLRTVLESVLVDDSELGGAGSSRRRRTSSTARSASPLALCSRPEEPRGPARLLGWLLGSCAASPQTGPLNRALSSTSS
Method in brief: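 Fluo-4-AM-loaded KB8 cells in HBSS with 10 mM HEPES and 1 mM CaCl2 received compound plus PGD2 (final 100 nM); peak fluorescence followed over time. Inhibition was computed against no-compound and unlabelled-PGD2 controls, and IC50 obtained from a dose-response curve.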

[2] = molecular target: T2, human CRTH2 expression cell KB8 (Homo sapiens, UniProt Q9Y5Y4); test: CRTH2 binding test (3H-PGD2 binding to KB8 cells); settings: 3H-PGD2 5 nM, 4° C., one hour
T2 construct: host or cells: KB8 cells (human CRTH2 expression cell)
T2 sequence (Q9Y5Y4 1-395): T1 sequence (Q9Y5Y4 1-395)
Procedure: CRTH2 binding inhibitory activity of the compound of the present invention was considered by using a binding test between human CRTH2 expression cell KB8 (BML, INC.) and ^3H-labeled prostaglandin D2 (hereinafter, abbreviated as ^3H-PGD2, manufactured by GE Healthcare).
KB8 was suspended in a reaction buffer solution (Hank's balanced salt solution (Invitrogen) containing 10 mM HEPES (Invitrogen)), which was dispensed in a 96 well plate (Coaster) so that 2×10^5 cells/well are placed. Furthermore, the compound of the present invention and ^3H-PGD2 (final concentration: 5 nM) were added, stirred, and incubated at 4° C.
One hour later, cells were collected on GF/C Filter Plate (PerkinElmer) that had been pre-coated with 0.5% polyethyleneimine solution (SIGMA) by using a Cell Harvester (Packard BioScience), and the radioactivity of the cells was measured by using Top count NXT (PerkinElmer) (a value measured herein was represented by a measurement value “a”). The same procedure was carried out in the absence of the compound, and a measurement value “b” was obtained; and the same procedure was carried out in the absence of the compound and in the presence of non-labeled PGD2 (final concentration: 50 μM), a measurement value “c” was obtained.
The binding inhibition rate of the compound was calculated by the following calculation formula: Bonding inhibitory rate(%)=[1−(a−c)/(b−c)]×100
That is to say, by using binding inhibition rates of compounds to be tested having various concentrations, the IC50 value was calculated according to a dose-dependent inhibition curve analyzed by using XLfit (IDBS) as a data analysis software, and the calculated value was defined as an indicator of the inhibitory activity. In Table 9, A denotes an inhibitory activity showing the IC50 value of less than 50 nM; B denotes an inhibitory activity showing the IC50 value of 50 nM or greater and less than 500 nM; C denotes an inhibitory activity showing the IC50 value of 500 nM or greater and less than 1000 nM; and D denotes an inhibitory activity showing the IC50 value of 1000 nM or greater.

[3] = PGD2 final concentration 100 nM, Fluo-4-AM fluorescence, read-out: antagonist activity (IC50 value, inhibition of calcium ion concentration increase)
[4] = IC50 class, read-out: binding inhibitory activity

Structure (SMILES)	IC50 [1, 3] [nM]	IC50 [2, 4] [nM]	IC50 ([2]; read-out: CRTH2 binding inhibitory activity IC50 value) [nM]	IC50 ([1]; PGD2 100 nM, Fluo-4 calcium fluorescence, read-out: CRTH2 antagonist activity IC50 value) [nM]
O=C(O)Cc1cnc(C(=O)c2ccc(NC(=O)NCc3ccc(Cl)c(Cl)c3)cc2)c2ccccc12 [Example 132, {1-[(4-{[(3,4-dichlorobenzyl)carbamoyl]amino}phenyl)carbonyl]isoquinolin-4-yl}acetic acid]	50 to 500	< 50		
O=C(O)Cc1cnc(C(=O)c2ccc(NCc3ccc(Cl)c(Cl)c3)cc2)c2ccccc12 [Example 133, [1-({4-[(3,4-dichlorobenzyl)amino]phenyl}carbonyl)isoquinolin-4-yl]acetic acid]	< 50	< 50		
O=C(O)Cc1cnc(C(=O)c2ccc(OCc3ccc(Cl)c(Cl)c3)cc2)c2ccccc12 [Example 134, [1-({4-[(3,4-dichlorobenzyl)oxy]phenyl}carbonyl)isoquinolin-4-yl]acetic acid]	50 to 500	< 50		
O=C(O)Cc1cnc(C(=O)c2ccc(C(=O)NCCc3ccc(Cl)cc3)cc2)c2ccccc12 [Example 135, {1-[(4-{[2-(4-chlorophenyl)ethyl]carbamoyl}phenyl)carbonyl]isoquinolin-4-yl}acetic acid]	< 50	< 50		
O=C(O)Cc1cnc(C(=O)c2ccc(C(=O)Nc3ccc(Cl)c(Cl)c3)cc2)c2ccccc12 [Example 136]	< 50	< 50		
O=C(O)Cc1cnc(C(=O)c2ccc(C(=O)NCCc3ccc(Cl)c(Cl)c3)cc2)c2ccccc12 [Example 137]	< 50	< 50		
COc1ccc(CCNC(=O)c2ccc(C(=O)c3ncc(CC(=O)O)c4ccccc34)cc2)cc1 [Example 138]	< 50	< 50		
O=C(O)Cc1cnc(C(=O)c2ccc(C(=O)NCCc3cccc(Cl)c3)cc2)c2ccccc12 [Example 139]	< 50	< 50		

Results, then the compound that gave them:

IC50 [1, 3] [nM]	IC50 [2, 4] [nM]	IC50 ([2]; read-out: CRTH2 binding inhibitory activity IC50 value) [nM]	IC50 ([1]; PGD2 100 nM, Fluo-4 calcium fluorescence, read-out: CRTH2 antagonist activity IC50 value) [nM]	Structure (SMILES)
50 to 500	< 50			O=C(O)Cc1cnc(C(=O)c2ccc(OCCc3ccc(Cl)cc3)cc2)c2ccccc12 [Example 141, [1-({4-[2-(4-chlorophenyl)ethoxy]phenyl}carbonyl)isoquinolin-4-yl]acetic acid]
50 to 500	< 50			O=C(O)Cc1cnc(C(=O)c2ccc(OCCCc3ccc(Cl)cc3)cc2)c2ccccc12 [Example 142]
50 to 500	< 50	9.9		O=C(O)Cc1cnc(C(=O)c2ccc(OCCOc3ccc(Cl)cc3)cc2)c2ccccc12 [Example 143]
< 50	< 50			O=C(O)Cc1cnc(Cc2ccc(NC(=O)c3ccc(Cl)c(Cl)c3)cc2)c2ccccc12 [Example 148, [1-(4-{[(3,4-dichlorophenyl)carbonyl]amino}benzyl)isoquinolin-4-yl]acetic acid]
< 50	< 50		12	O=C(O)Cc1cnc(Cc2ccc(C(=O)NCCc3ccc(Cl)cc3)cc2)c2ccccc12 [Example 153, [1-(4-{[2-(4-chlorophenyl)ethyl]carbamoyl}benzyl)isoquinolin-4-yl]acetic acid]
